Patent US7341998B2 (The Board of Trustees of the Leland Stanford Junior …, priority 2005, dated 2008)

Target: voltage-gated Na channels
Format: cell-based, squid (Loligo opalescens)

Sequence: MKLTCVLVVLLLLLPYGDLITNNYIRGAARKVTPWRRNLKTRDVCDSLVGGHCIHNGCWCDQEAPHGNCCDTDGCTAAWWCPGTKWD [calTx1.1A]
- Ki: ~15 nM
- Na-channel blocking activity (block): 55%
- reversibility of INa reduction/block: reversibly blocked INa
- steady-state voltage-dependence of fast inactivation of residual INa: not significantly affected
- time course of residual prepulse-sensitive INa: not significantly different than normal
- voltage dependence of block: potency decreasing e-fold in: 300-400 mV
